Among the data in the supplement of paper PMC10307832 are relative viability values, retold here.

Common to all, as to test: relative viability (nuclei count vs DMSO), 5 days (fraction); higher = more cells survive
Compound in the assay “Entinostat + Crizotinib”: Nc1ccccc1NC(=O)c1ccc(CNC(=O)OCc2cccnc2)cc1 [Entinostat] + C[C@@H](Oc1cc(-c2cnn(C3CCNCC3)c2)cnc1N)c1c(Cl)ccc(F)c1Cl [Crizotinib] (partner 1 µM)
A digest of the protocol: (§1)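 Relative viability was taken as the ratio of nuclei in treated wells to nuclei in vehicle wells. Lung cancer cell lines in 1536-well plates received compounds by pin tool one day after seeding, either one drug alone or a fixed anchor-drug dose plus five library-drug doses (not always all listed) in √10 steps. Nuclei were counted on 4× images after 5 days of treatment, and values are medians of duplicate plates.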

Compound in assay [1]: C1COCCN1C2=NC(=NC3=C2OC4=C3C=CC=N4)C5=CC(=CC=C5)NC(=O)C6=CN=C(C=C6)N + COc1cc2c(Oc3ccc(NC(=O)C4(C(=O)Nc5ccc(F)cc5)CC4)cc3F)ccnc2cc1OCCCN1CCOCC1 [Foretinib] (partner 0.25 µM)
Summed up: as §1

Compound in the assay “SGI-1776 + Phenformin”: CN1CCC(CNc2ccc3ncc(-c4cccc(OC(F)(F)F)c4)n3n2)CC1 [SGI-1776] + N=C(N)NC(=N)NCCc1ccccc1 [Phenformin] (partner 250 µM)
A digest of the protocol: as §1

Compound in the assay “Entinostat + Lapatinib”: Nc1ccccc1NC(=O)c1ccc(CNC(=O)OCc2cccnc2)cc1 [Entinostat] + CS(=O)(=O)CCNCc1ccc(-c2ccc3ncnc(Nc4ccc(OCc5cccc(F)c5)c(Cl)c4)c3c2)o1 [Lapatinib] (partner 2 µM)
A digest of the protocol: as §1

As for UMC-11, the relative viability with Entinostat + Crizotinib (first compound 0.02 µM) was 0.623; with Entinostat + Crizotinib (first compound 0.06325 µM) it was 0.646; with Entinostat + Crizotinib (first compound 0.2 µM), 0.363; with Entinostat + Crizotinib (first compound 0.6325 µM), 0.109; with Entinostat + Crizotinib (first compound 2 µM), 0.0765; in assay [1] (first compound 0.02 µM), 1.05. In addition, the relative viability came out at 1.08 in assay [1] (first compound 0.06325 µM); 1.21 in assay [1] (first compound 0.2 µM); 1.19 in assay [1] (first compound 0.6325 µM); 0.871 in assay [1] (first compound 2 µM); 0.31 in the assay with SGI-1776 + Phenformin (first compound 0.08 µM); 0.322 in the assay with SGI-1776 + Phenformin (first compound 0.8 µM). The relative viability stood at 0.302 with SGI-1776 + Phenformin (first compound 2.53 µM); 0.252 in the assay with SGI-1776 + Phenformin (first compound 8 µM); 1.17 with Entinostat + Lapatinib (first compound 0.02 µM); 1.21 with Entinostat + Lapatinib (first compound 0.06325 µM); 1.28 in the assay with Entinostat + Lapatinib (first compound 0.2 µM); 0.222 with Entinostat + Lapatinib (first compound 0.6325 µM). Also, in the assay with Entinostat + Lapatinib (first compound 2 µM), the relative viability worked out at 0.173.
